“Also recorded” adds a separate entry of the source. Read-outs that look alike come from different tables or passages of the source.
Tests used:
[1] = cited from earlier work; for Seizure activity / liability in vivo: rodents
[2] = test system: Schaffer collateral – CA1 (SC-CA1) synapse; details: cited from earlier work
[3] = test system: CA3 pyramidal neurons; details: hippocampal preparations; prior studies; cited from earlier work
[4] = target: T1, rat mGlu5 (Rattus norvegicus, UniProt P31424); details: cited from earlier work
[5] = target: mGlu5 W784A (Rattus norvegicus, UniProt P31424, W784A); assay: Progressive fold-shift at mGlu5 point mutant, operational model of allosterism
[6] = cited from earlier work
[7] = rat; cited from earlier work
[8] = human; cited from earlier work
[9] = Amphetamine induced hyperlocomotion, in vivo model of psychosis; details: high dose, preliminary
[10] = target: T1, rat mGlu5; details: increasing concentrations
[11] = test system: panel of 68 GPCRs, ion channels and transporters; assay: Off-target panel screen; type: binding; details: 10 µM, 68 targets
[12] = target: T1, rat mGlu5; details: operational model of allosterism
[13] = test system: Schaffer collateral – CA1 (SC-CA1) synapse; assay: Long-term depression; details: compound on its own, rat hippocampus
[14] = target: mGlu5 S808A (Rattus norvegicus, UniProt P31424, S808A); assay: Progressive fold-shift at mGlu5 point mutant, operational model of allosterism
[15] = Cmax minimum active dose AHL versus Cmax minimum adverse effect dose; cited from earlier work

T1 sequence (P31424 21-1203): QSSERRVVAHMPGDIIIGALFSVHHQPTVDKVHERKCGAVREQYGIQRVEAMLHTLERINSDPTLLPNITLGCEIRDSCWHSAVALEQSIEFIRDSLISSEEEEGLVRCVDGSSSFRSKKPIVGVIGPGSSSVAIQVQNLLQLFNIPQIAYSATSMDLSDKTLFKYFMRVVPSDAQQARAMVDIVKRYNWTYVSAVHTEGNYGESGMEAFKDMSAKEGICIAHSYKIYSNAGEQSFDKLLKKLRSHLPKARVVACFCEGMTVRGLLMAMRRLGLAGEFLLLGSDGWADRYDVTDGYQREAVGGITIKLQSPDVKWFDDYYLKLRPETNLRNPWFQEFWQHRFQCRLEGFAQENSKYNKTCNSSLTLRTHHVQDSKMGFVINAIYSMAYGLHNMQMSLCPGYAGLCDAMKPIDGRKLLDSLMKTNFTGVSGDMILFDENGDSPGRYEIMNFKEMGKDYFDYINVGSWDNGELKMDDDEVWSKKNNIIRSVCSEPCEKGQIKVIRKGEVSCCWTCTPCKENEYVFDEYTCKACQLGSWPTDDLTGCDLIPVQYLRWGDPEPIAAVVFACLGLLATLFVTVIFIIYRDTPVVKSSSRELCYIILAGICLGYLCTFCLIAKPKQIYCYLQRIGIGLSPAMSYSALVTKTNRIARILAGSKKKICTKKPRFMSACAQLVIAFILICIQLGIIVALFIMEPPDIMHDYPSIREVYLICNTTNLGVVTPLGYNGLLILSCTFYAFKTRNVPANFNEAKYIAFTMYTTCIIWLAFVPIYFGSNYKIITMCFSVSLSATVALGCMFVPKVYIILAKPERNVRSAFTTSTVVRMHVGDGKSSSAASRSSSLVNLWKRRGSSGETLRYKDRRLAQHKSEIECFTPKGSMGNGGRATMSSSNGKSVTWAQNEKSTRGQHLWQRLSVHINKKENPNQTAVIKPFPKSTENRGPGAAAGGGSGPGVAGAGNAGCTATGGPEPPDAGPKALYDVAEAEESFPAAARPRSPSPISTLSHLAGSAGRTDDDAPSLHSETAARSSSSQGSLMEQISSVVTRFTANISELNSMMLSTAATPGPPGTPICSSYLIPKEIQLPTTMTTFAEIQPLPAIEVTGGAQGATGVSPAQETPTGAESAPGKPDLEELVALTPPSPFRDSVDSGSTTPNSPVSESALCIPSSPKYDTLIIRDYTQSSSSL
Chain of mGlu5 W784A (P31424 21-1203 W784A): as the sequence (P31424 21-1203) above, with W764A counted along it
Chain of mGlu5 S808A (P31424 21-1203 S808A): as the sequence (P31424 21-1203) above, with S788A counted along it

In the case of `C[C@@H](NC(=O)c1ccc(C#Cc2cccc(F)c2)cn1)C(C)(C)O` [Compound 19, (R)-5-((3-Fluorophenyl)ethynyl)-N-(3-hydroxy-3-methylbutan-2-yl)picolinamide], the “Seizure activity / liability in vivo” value [1] is listed as “causes seizure activity”, the “Induction of LTD at SC-CA1 synapse” value [2] is listed as “induces LTD” and the “Epileptiform activity in CA3 pyramidal neurons” value [3] is listed as “induction of epileptiform activity”. The “Allosteric agonism in mGlu5 cell line with low receptor density” value [4] was “ago-PAM activity”.

In the case of `C[C@@H](NC(=O)c1ccc(C#Cc2ccccn2)cn1)C(C)(C)O` [Compound 31i, (R)-N-(3-Hydroxy-3-methylbutan-2-yl)-5-(pyridin-2-ylethynyl)picolinamide], the “Effect of W784A mutation” value [5] is reported as “gain in allosteric agonist activity”.

For `O=C(N[C@H]1C[C@H](O)C1)c1ccc(C#Cc2cccc(F)c2)cn1` [Compound 22], the “Agonist activity in mGlu5 low-expressing cell line” value [4] is given as “significant ago-PAM activity”.

For `O=C(NC1CCC1)c1ccc(C#Cc2cccc(F)c2)nc1` [Compound 26], the Plasma protein binding [6] is given as 98.9%.

In the case of `O=C(NC1CCC1)c1ccc(C#Cc2cccc(F)c2)cn1` [Compound 21], the “Seizure liability in animal models” value [1] is given as “possesses a seizure liability”, the Plasma protein binding [7] is given as over 99 % bound and the fu plasma [7] is given as under 1%. For the same molecule, the Plasma protein binding [8] was over 99 % bound, the fu plasma [8] was under 1% and the “Agonist activity in mGlu5 low-expressing cell line” value [4] was “demonstrates agonist activity”.

In the case of `O=C(c1ccc(C#Cc2cccc(F)c2)nc1)N1CCC(O)CC1` [Compound 20], the “Seizure activity / liability in vivo” value [1] is listed as “did not display a seizure liability” and the “Allosteric agonism in mGlu5 cell line with low receptor density” value [4] is listed as “devoid of agonism”.

With `CC1(NC(=O)c2ccc(C#Cc3cccc(F)c3)cn2)COC1` [Compound 38t, 5-((3-Fluorophenyl)ethynyl)-N-(3-methyloxetan-3-yl)picolinamide] the Behavioral disturbances [9] was “no overt behavioral disturbances”, the “Reversal of amphetamine induced hyperlocomotion” value ([9]; data not shown) was “robust reversal” and the “Inhibition of [^3H]methoxyPEPy binding” value [10] was “complete inhibition”. For the same molecule, the Off target activity [11] was “no significant off target activity”, the “Efficacy cooperativity factor (logβ) between glutamate and modulator” value [12] was 0.34 and the “Predicted affinity (log value)” value ([12]; progressive fold-shift) was −6.81. The “Induction of LTD at SC-CA1 synapse” value [13] was “no effect; also recorded: does not induce LTD” and the “Effect of S808A mutation” value [14] was “NAM switch”.

In the case of `C[C@@H]1CC[C@H](c2noc(-c3ccc(F)cn3)n2)CN1C(=O)c1ccccc1` [Compound 5PAM523], the Therapeutic index [15] is listed as 2 fold.

For `O=C1c2ccc(F)cc2CCC2CC[C@@H](c3noc(-c4ccc(F)cn4)n3)CN12` (stereo partly shown) [Compound 5PAM916], the Therapeutic index [15] is listed as 18 fold.

— publication PMC3908770 (Journal of medicinal chemistry, 2013)
